The target in this experiment is T1, IDO-1 (Homo sapiens, UniProt P14902).
T1 construct: expressed in transfected cells; host or cells: HEK293 (hIDO1-HEK293 recombinant cells)
Put plainly: IDO-1 activity by kynurenine levels in hIDO1-HEK293 recombinant cells. The conditions noted are these: 10 uM, 24 hours. The format is cell-based. On the procedure:
IDO-1 activity was measured indirectly using kynurenine levels using the following protocols. Briefly, hIDO1-HEK293 recombinant cells were plated overnight. The following day the cells were left untreated or treated with 10 uM of ID3, ID3-SA or LNP-ID3-SA for twenty-four (24) hours. The IDO-1 activity was measured by indirect measurement of kynurenine levels by analyzing absorption at 480 nm using IDO1 Cellular Activity QuickDetect™ kit (PBSBioscience, San Diego, CA).

T1 sequence (P14902 whole entry): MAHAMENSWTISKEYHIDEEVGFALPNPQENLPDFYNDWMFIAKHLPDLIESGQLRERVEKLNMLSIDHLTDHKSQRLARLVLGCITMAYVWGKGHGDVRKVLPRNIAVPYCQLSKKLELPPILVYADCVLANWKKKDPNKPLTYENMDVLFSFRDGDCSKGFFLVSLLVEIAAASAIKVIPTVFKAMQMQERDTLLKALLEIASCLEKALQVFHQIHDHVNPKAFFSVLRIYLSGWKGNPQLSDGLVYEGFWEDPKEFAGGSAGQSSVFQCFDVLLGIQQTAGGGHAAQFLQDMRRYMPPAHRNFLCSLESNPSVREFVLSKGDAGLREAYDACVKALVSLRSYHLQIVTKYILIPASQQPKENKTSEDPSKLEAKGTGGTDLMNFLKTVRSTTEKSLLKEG

On to `CCCCCCCCCCCCCCCCCC(=O)OCOC(=O)N(C(=O)[C@H](C)[C@H]1CC[C@@H](c2ccnc3ccc(F)cc32)CC1)c1ccc(Cl)cc1` [ID3-SA], for which the “IDO-1 activity (kynurenine levels, absorption at 480 nm)” value was “inhibited IDO-1 activity”.

Values taken from patent publication US12286403B2, “Formulated and/or co-formulated liposome compositions containing IDO antagonist prodrugs useful in the treatment of cancer and methods thereof” (Nammi Therapeutics, Inc., priority 2019, dated 2025).
